According to US10501425B2, “Microbiocidal oxadiazole derivatives” (SYNGENTA PARTICIPATIONS AG, priority 2015, dated 2019):

Key:
[1] = tested on: Puccinia recondita f. Sp. Tritici; assay: Puccinia recondita f. sp. tritici / wheat / leaf disc curative (brown rust); assay type: in vivo; settings: foliar, 24 h, 200 ppm in the applied formulation, wheat leaf segments cv. Kanzler, curative (applied 1 day after inoculation), compared to untreated, read-out: disease control
Procedure: (§1) Leaf disks or leaf segments of various plant species are cut from plants grown in a greenhouse. The cut leaf disks or segments are placed in multiwell plates (24-well format) onto water agar. The leaf disks are sprayed with a test solution before (preventative) or after (curative) inoculation. Compounds to be tested are prepared as DMSO solutions (max. 10 mg/ml) which are diluted to the appropriate concentration with 0.025% Tween20 just before spraying. The inoculated leaf disks or segments are incubated under defined conditions (temperature, relative humidity, light, etc.) according to the respective test system. A single evaluation of disease level is carried out 3 to 14 days after inoculation, depending on the pathosystem. Percent disease control relative to the untreated check leaf disks or segments is then calculated.
Wheat leaf segments cv. Kanzler are placed on agar in multiwell plates (24-well format). The leaf segments are then inoculated with a spore suspension of the fungus. Plates were stored in darkness at 19° C. and 75% relative humidity. The formulated test compound diluted in water was applied 1 day after inoculation. The leaf segments were incubated at 19° C. and 75% relative humidity under a light regime of 12 hours light/12 hours darkness in a climate cabinet and the activity of a compound was assessed as percent disease control compared to untreated when an appropriate level of disease damage appears in untreated check leaf segments (6 to 8 days after application).
The following compounds at 200 ppm in the applied formulation give at least 80% disease control in this test when compared to untreated control leaf disks under the same conditions, which show extensive disease development.

[2] = tested on: Glomerella lacenarium (Colletotrichum lagenarium); assay: Glomerella lagenarium liquid culture / cucumber / preventative (anthracnose); assay type: cell-based; settings: Colletotrichum orbiculare; 20 ppm in the applied formulation; liquid culture (PDB), growth inhibition measured photometrically 3 to 4 days after application; compared to untreated; read-out: disease control
Procedure: Mycelia fragments or conidia suspensions of a fungus prepared either freshly from liquid cultures of the fungus or from cryogenic storage, are directly mixed into nutrient broth. DMSO solutions of the test compound (max. 10 mg/ml) are diluted with 0.025% Tween20 by a factor of 50 and 10 μl of this solution is pipetted into a microtiter plate (96-well format). The nutrient broth containing the fungal spores/mycelia fragments is then added to give an end concentration of the tested compound. The test plates are incubated in the dark at 24° C. and 96% relative humidity. The inhibition of fungal growth is determined photometrically after 2 to 7 days, depending on the pathosystem, and percent antifungal activity relative to the untreated check is calculated.
Conidia of the fungus from cryogenic storage are directly mixed into nutrient broth (PDB—potato dextrose broth). After placing a (DMSO) solution of test compound into a microtiter plate (96-well format), the nutrient broth containing the fungal spores is added.
The following compounds at 20 ppm in the applied formulation give at least 80% disease control in this test when compared to untreated control under the same conditions, which show extensive disease development.

[3] = tested on: Puccinia recondita f. Sp. Tritici; assay: Puccinia recondita f. sp. tritici / wheat / leaf disc preventative (brown rust); assay type: in vivo; settings: foliar, 200 ppm in the applied formulation, wheat leaf segments cv. Kanzler, preventative (inoculated 1 day after application), compared to untreated, read-out: disease control
Procedure: as §1, with “calculated. Wheat leaf segments cv. Kanzler were placed on agar in multiwell plates (24-well format) and sprayed with the formulated test compound diluted in water. The leaf disks were inoculated with a spore suspension of the fungus 1 day after application. The inoculated leaf segments were incubated at 19° C. and 75% relative humidity (rh) under a light regime of 12 hours light/12 hours darkness in a climate cabinet and the activity of a compound was assessed as percent disease control compared to untreated when an appropriate level of disease damage appears in untreated check leaf segments (7 to 9 days after application). The following compounds at 200 ppm in the applied formulation give at least 80% disease control in this test when compared to untreated control leaf disks under the same conditions, which show extensive disease development.” for “calculated.”

COCCC(=O)NCc1ccc(-c2noc(C(F)(F)F)n2)cc1F [Compound 1.37, N-[[2-fluoro-4-[5-(trifluoromethyl)-1,2,4-oxadiazol-3-yl]phenyl]methyl]-3-methoxy-propanamide]
≥ 80%: pest or weed control at 200 ppm [1] | inhibition of growth at 20 ppm [2] | pest or weed control at 200 ppm [3]

N#CCC(=O)NCc1ccc(-c2noc(C(F)(F)F)n2)cc1F [Compound 1.45, 2-cyano-N-[[2-fluoro-4-[5-(trifluoromethyl)-1,2,4-oxadiazol-3-yl]phenyl]methyl]acetamide]
≥ 80%: pest or weed control at 200 ppm [1] | inhibition of growth at 20 ppm [2] | pest or weed control at 200 ppm [3]

O=C(NCc1ccc(-c2noc(C(F)(F)F)n2)cn1)OCCCCCl [Compound 2.28, 4-chlorobutyl N-[[5-[5-(trifluoromethyl)-1,2,4-oxadiazol-3-yl]-2-pyridyl]methyl]carbamate]
≥ 80%: pest or weed control at 200 ppm [1] | inhibition of growth at 20 ppm [2] | pest or weed control at 200 ppm [3]

COCCCC(=O)NCc1ccc(-c2noc(C(F)(F)F)n2)cc1F [Compound 1.42, N-[[2-fluoro-4-[5-(trifluoromethyl)-1,2,4-oxadiazol-3-yl]phenyl]methyl]-4-methoxy-butanamide]
≥ 80%: pest or weed control at 200 ppm [1] | inhibition of growth at 20 ppm [2] | pest or weed control at 200 ppm [3]

C=CCOC(=O)NCc1ccc(-c2noc(C(F)(F)F)n2)cn1 [Compound 2.25, allyl N-[[5-[5-(trifluoromethyl)-1,2,4-oxadiazol-3-yl]-2-pyridyl]methyl]carbamate]
≥ 80%: pest or weed control at 200 ppm [1] | inhibition of growth at 20 ppm [2] | pest or weed control at 200 ppm [3]

COCCOC(=O)NCc1ccc(-c2noc(C(F)(F)F)n2)cn1 [Compound 2.24, 2-methoxyethyl N-[[5-[5-(trifluoromethyl)-1,2,4-oxadiazol-3-yl]-2-pyridyl]methyl]carbamate]
≥ 80%: pest or weed control at 200 ppm [1] | inhibition of growth at 20 ppm [2] | pest or weed control at 200 ppm [3]

CC(C)COC(=O)NCc1ccc(-c2noc(C(F)(F)F)n2)cn1 [Compound 2.22, isobutyl N-[[5-[5-(trifluoromethyl)-1,2,4-oxadiazol-3-yl]-2-pyridyl]methyl]carbamate]
≥ 80%: pest or weed control at 200 ppm [1] | inhibition of growth at 20 ppm [2] | pest or weed control at 200 ppm [3]

COCCCC(=O)NCc1ccc(-c2noc(C(F)(F)F)n2)c(F)c1F [Compound 1.61, N-[[2,3-difluoro-4-[5-(trifluoromethyl)-1,2,4-oxadiazol-3-yl]phenyl]methyl]-4-methoxy-butanamide]
≥ 80%: pest or weed control at 200 ppm [1] | inhibition of growth at 20 ppm [2] | pest or weed control at 200 ppm [3]

C#CCOC(=O)NCc1ccc(-c2noc(C(F)(F)F)n2)cn1 [Compound 2.35, prop-2-ynyl N-[[5-[5-(trifluoromethyl)-1,2,4-oxadiazol-3-yl]-2-pyridyl]methyl]carbamate]
≥ 80%: pest or weed control at 200 ppm [1] | inhibition of growth at 20 ppm [2] | pest or weed control at 200 ppm [3]

COCCCC(=O)NCc1ccc(-c2noc(C(F)(F)F)n2)c(F)c1 [Compound 1.40, N-[[3-fluoro-4-[5-(trifluoromethyl)-1,2,4-oxadiazol-3-yl]phenyl]methyl]-4-methoxy-butanamide]
≥ 80%: pest or weed control at 200 ppm [1] | inhibition of growth at 20 ppm [2] | pest or weed control at 200 ppm [3]

CCCCOC(=O)NCc1ccc(-c2noc(C(F)(F)F)n2)cn1 [Compound 2.26, butyl N-[[5-[5-(trifluoromethyl)-1,2,4-oxadiazol-3-yl]-2-pyridyl]methyl]carbamate]
≥ 80%: pest or weed control at 200 ppm [1] | inhibition of growth at 20 ppm [2] | pest or weed control at 200 ppm [3]

N#CCC(=O)NCc1ccc(-c2noc(C(F)(F)F)n2)c(F)c1 [Compound 1.43, 2-cyano-N-[[3-fluoro-4-[5-(trifluoromethyl)-1,2,4-oxadiazol-3-yl]phenyl]methyl]acetamide]
≥ 80%: pest or weed control at 200 ppm [1] | inhibition of growth at 20 ppm [2] | pest or weed control at 200 ppm [3]

O=C(CC(F)(F)F)NCc1ccc(-c2noc(C(F)(F)F)n2)cn1 [Compound 1.74, 3,3,3-trifluoro-N-[(5-[5-(trifluoromethyl)-1,2,4-oxadiazol-3-yl]-2-pyridyl]methyl]propanamide]
≥ 80%: pest or weed control at 200 ppm [1] | inhibition of growth at 20 ppm [2] | pest or weed control at 200 ppm [3]

CCC(C)C(=O)NCc1ccc(-c2noc(C(F)(F)F)n2)cn1 (stereo not drawn) [Compound 1.71, 2-methyl-N-[[5-[5-(trifluoromethyl)-1,2,4-oxadiazol-3-yl]-2-pyridyl]methyl]butanamide]
≥ 80%: pest or weed control at 200 ppm [1] | inhibition of growth at 20 ppm [2] | pest or weed control at 200 ppm [3]

CCCC(=O)NCc1ccc(-c2noc(C(F)(F)F)n2)cn1 [Compound 1.67, N-[[5-[5-(trifluoromethyl)-1,2,4-oxadiazol-3-yl]-2-pyridyl]methyl]butanamide]
≥ 80%: pest or weed control at 200 ppm [1] | inhibition of growth at 20 ppm [2] | pest or weed control at 200 ppm [3]

CCOC(=O)NCc1ccc(-c2noc(C(F)(F)F)n2)cn1 [Compound 2.32, ethyl N-[[5-[5-(trifluoromethyl)-1,2,4-oxadiazol-3-yl]-2-pyridyl]methyl]carbamate]
≥ 80%: pest or weed control at 200 ppm [1] | inhibition of growth at 20 ppm [2] | pest or weed control at 200 ppm [3]

O=C(NCc1ccc(-c2noc(C(F)(F)F)n2)cn1)OCCCl [Compound 2.33, 2-chloroethyl N-[[5-[5-(trifluoromethyl)-1,2,4-oxadiazol-3-yl]-2-pyridyl]methyl]carbamate]
≥ 80%: pest or weed control at 200 ppm [1] | inhibition of growth at 20 ppm [2] | pest or weed control at 200 ppm [3]

COCCCC(=O)NCc1ccc(-c2noc(C(F)(F)F)n2)cn1 [Compound 1.72, 4-methoxy-N-[[5-[5-(trifluoromethyl)-1,2,4-oxadiazol-3-yl]-2-pyridyl]methyl]butanamide]
≥ 80%: pest or weed control at 200 ppm [1] | inhibition of growth at 20 ppm [2] | pest or weed control at 200 ppm [3]

CC(C)(C)NC(=O)NCc1ccc(-c2noc(C(F)(F)F)n2)cc1 [Compound 3.15, 1-tert-butyl-3-[[4-[5-(trifluoromethyl)-1,2,4-oxadiazol-3-yl]phenyl]methyl]urea]
≥ 80%: pest or weed control at 200 ppm [1] | inhibition of growth at 20 ppm [2] | pest or weed control at 200 ppm [3]
